Measured values as given in ChEMBL document CHEMBL1121823, “A novel connector linkage applicable in prodrug design” (J Med Chem, 1981).

Legend:
Type in all cases: ADME
[1] = Half-life was determined; conditions: human
[2] = Half-life in aqueous buffer (0.05 M bistris, pH 6.9) in the absence of trypsin was determined at 25 degree C; conditions: aqueous buffer without trypsin
[3] = Half-life in aqueous buffer (0.05 M bistris, pH 6.9) in the presence of trypsin (2.5 ug/ml) was determined at 25 degree C

SMILES | half-life [1] | half-life [2] | half-life [3]
NC(=O)OCc1ccc(N)cc1 | 1.5 min |  | 
CC(C)(C)OC(=O)NC(CCCCN)C(=O)Nc1ccc(COC(=O)Nc2ccc([N+](=O)[O-])cc2)cc1 (stereo not drawn) |  | 40 h | 11 min
